From US20260167673A1, “NOVEL POLYPEPTIDE, POLYPEPTIDE DERIVATIVE AND USE THEREOF” (NANJING ANJI BIOTECHNOLOGY CO., LTD., priority 2023, published 2026)
Read-outs that look alike come from different tables or passages of the source. Marks after values point to notes of the source that are not given here. Where no end group is shown, it is not given here.

Key:
Type in all cases: cell-based
[1] = tested on: human lung squamous cell carcinoma cells SK-MES-1; test: CCK8 proliferation inhibition, SK-MES-1; conditions: SK-MES-1, 50 μM, 48 h
Procedure: (§1) Incubation was continued for 4 h in a cell incubator, an absorbance was measured at 450 nm, and a proliferation inhibition was calculated. Data was presented as mean±SD, and GraphPad Prism 5.0 statistical software was used. A t-test was used for comparison between two groups, while One-way Anova (Dunnett) was used for comparison among a plurality of groups.

[2] = tested on: human laryngeal epidermoid carcinoma cells HEp2; test: CCK8 proliferation inhibition, HEp2; conditions: HEp2, 50 μM, 48 h
Procedure: as §1

[3] = tested on: human esophageal cancer cells TE-13; test: CCK8 proliferation inhibition, TE-13; conditions: TE-13, 50 μM, 48 h
Procedure: as §1

[4] = tested on: human oral epidermoid carcinoma cells KB; test: CCK8 proliferation inhibition, KB; conditions: 50 μM, 48 h
Procedure: as §1

[5] = tested on: human malignant melanoma cells A375; test: CCK8 proliferation inhibition, A375; conditions: A375, 50 μM, 48 h
Procedure: as §1

[6] = tested on: human liver cancer Hep3B cells; test: Transwell metastasis inhibition, Hep3B; conditions: 50 μmol/L, 48 h
Procedure: Melanoma, cervical cancer, ovarian cancer, liver cancer, and lung cancer cells were seeded into transwell chambers, with 100 μL per well. Different doses of the HMMW micropeptide and the novel polypeptide HMMW15-51 were added to each chamber as a treatment group, while no drug was added to a blank group. Then, 0.6 mL of a complete culture medium containing 10% FBS was added to the lower chambers of the transwell to stimulate cell metastasis, and the cells were cultured at 5% CO2 and 37° C. for 48 h. The culture solution was discarded from the wells. The cells were fixed with methanol at room temperature for 30 min, stained with 0.1% crystal violet at room temperature for 10 min, and rinsed with clean water. The upper layer nonmetastatic cells were wiped off with a cotton swab. The cells were observed under a microscope, and four fields of view were selected to take photos and count the cells. A metastasis inhibition (MI) was calculated according to a formula: […]
where Ntest represents the number of cell metastases in the treatment group, and Ncontrol represents the number of cell metastases in the blank control group.
Data was presented as mean±SD, and GraphPad Prism 5.0 statistical software was used.

[7] = tested on: human pancreatic cancer cells PANC-1; test: CCK8 proliferation inhibition, PANC-1; conditions: PANC-1, 50 μM, 48 h
Procedure: as §1

[8] = tested on: human breast cancer cells SK-BR-3; test: CCK8 proliferation inhibition, SK-BR-3; conditions: SK-BR-3, 50 μM, 48 h
Procedure: as §1

[9] = tested on: human ovarian cancer cells SKOV3; test: CCK8 proliferation inhibition, SKOV3 (Example 5); conditions: SKOV3, 50 μM, 48 h
Procedure: as §1

[10] = tested on: human gastric cancer cells BGC-823; test: CCK8 proliferation inhibition, BGC-823; conditions: BGC-823, 50 μM, 48 h
Procedure: as §1

[11] = tested on: human tongue squamous cell carcinoma CAL27 cells; conditions: CAL27, 80 μM, 48 h
Procedure: After incubation was continued for 48 h, add 100 μL of CCK8 solution to each well of the 96-well plate.

[12] = tested on: human esophageal cancer cells Eca-109; test: CCK8 proliferation inhibition, Eca-109; conditions: Eca-109, 50 μM, 48 h
Procedure: as §1

[13] = tested on: human pancreatic cancer cells ASPC-1; test: CCK8 proliferation inhibition, ASPC-1; conditions: ASPC-1, 50 μM, 48 h
Procedure: as §1

[14] = tested on: human non-small cell lung cancer cells A549; test: CCK8 proliferation inhibition, A549; conditions: A549, 50 μM, 48 h
Procedure: as §1

[15] = tested on: human osteosarcoma cells MG63; test: CCK8 proliferation inhibition, MG63; conditions: MG63, 50 μM, 48 h
Procedure: as §1

MERAGVPGFSPRRSSVEAKMQSTSCSVRKSSTVTAWPAVVLLLSWGQRRGG [HMMW]
Inhibition (%) [1]: 54.910 ± 4.426 %
OD [1]: 0.435 ± 0.043
Inhibition (%) [2]: 42.416 ± 2.236 %
OD [2]: 0.504 ± 0.020
Inhibition (%) [3]: 53.060 ± 1.911 %
OD [3]: 0.389 ± 0.016
Inhibition (%) [4]: 53.399 ± 3.971 %
OD [4]: 0.471 ± 0.040
Inhibition (%) [5]: 49.572 ± 4.128 %
OD [5]: 0.491 ± 0.040
Inhibition (%) ([6]; Hep3B metastasis): 88.13*** %
Number of cell metastases ([6]; Hep3B): 70 ± 75.82
Inhibition (%) [7]: 50.273 ± 6.135 %
OD [7]: 0.424 ± 0.052
Inhibition (%) [8]: 53.710 ± 4.902 %
OD [8]: 0.507 ± 0.054
Inhibition (%) [9]: 52.644 ± 4.018 %
OD [9]: 0.466 ± 0.040
Inhibition (%) [10]: 47.730 ± 4.739 %
OD [10]: 0.510 ± 0.046
OD ([11]; Table 1, deletion mutants): 0.260 ± 0.098
OD ([11]; Table 2, truncated fragments): 0.351 ± 0.078
Inhibition (%) [12]: 63.071 ± 2.982 %
OD [12]: 0.350 ± 0.028
Inhibition (%) [13]: 51.448 ± 4.377 %
OD [13]: 0.497 ± 0.045
Inhibition (%) [14]: 52.950 ± 2.023 %
OD [14]: 0.508 ± 0.022
Inhibition (%) [15]: 52.544 ± 2.562 %
OD [15]: 0.435 ± 0.024
